For eleven compounds, IC50 and melting point results are on record in patent publication US7407988B2, “Carbamic acid compounds comprising a sulfonamide linkage as HDAC inhibitors” (Topotarget UK Limited, priority 2000, dated 2008).

For series [1], the system named is K11 HPV E7 transformed human keratinocyte line. Nature of the series: Secondary assay: cell proliferation WST-1, K11. It is filed as cell-based. The settings on record: Table 2, 48 h, read-out: Cell Proliferation Inhibition WST-1 (IC50 unless otherwise specified) K11.
The next series deals with JURKAT human T-cell line. The experiment in a line: Secondary assay: cell proliferation WST-1, Jurkat. The settings on record: Table 2, 48 h, read-out: Cell Proliferation Inhibition WST-1 (IC50 unless otherwise specified) Jurkat. It counts as cell-based.
Series [2] relates to NHEK-Ad primary human adult keratinocyte line. Nature of the series: Secondary assay: cell proliferation WST-1, NHEK-Ad. As to conditions: 48 h, read-out: Cell Proliferation Inhibition WST-1 (IC50 unless otherwise specified) NHEK-AD. It is filed as cell-based.
A further series concerns HeLa cells. Nature of the series: Secondary assay: cell proliferation WST-1, HeLa. It is filed as cell-based. The settings on record: Homo sapiens, read-out: Cell Proliferation Inhibition WST-1 (IC50 unless otherwise specified) HeLa.
Another series relates to HDAC (HeLa cell extract). Nature of the series: Primary assay: deacetylase activity, HeLa cell extract as source of HDAC. It is filed as biochemical, human. The source says:
Briefly, this assay relies on the release of radioactive acetate from a radioactively labelled histone fragment by the action of HDAC enzyme. Test compounds, which inhibit HDAC, reduce the yield of radioactive acetate. Signal (e.g., scintillation counts) measured in the presence and absence of a test compound provide an indication of that compound's ability to inhibit HDAC activity. Decreased activity indicates increased inhibition by the test compound.
The histone fragment was an N-terminal sequence from histone H4, and it was labelled with radioactively labelled acetyl groups using tritiated acetylcoenzyme A (coA) in conjunction with an enzyme which is the histone acetyltransferase domain of the transcriptional coactivator p300. […] The acetylated peptide was then separated from free acetyl coA by size exclusion chromatography on Sephadex G-15 (Sigma G-15-120), using distilled H2O as the mobile phase.
After purification of the radiolabelled histone fragment, it was incubated with a source of HDAC (e.g., an extract of HeLa cells (a rich source of HDAC), recombinantly produced HDAC1 or HDAC2) and any released acetate was extracted into an organic phase and quantitatively determined using scintillation counting. By including a test compound with the source of HDAC, that compound's ability to inhibit the HDAC was determined.
Two cell volumes of extraction buffer were used, and particulate material was centrifuged out (20800 g, 4° C., 10 min). The supernatant extract having deacetylase activity was aliquotted and frozen for storage.
A source of HDAC (e.g., 2 μL of crude HeLa extract, 5 μL of HDAC1 or HDAC2; in elution buffer, as above) was incubated with 3 μL of radioactively labelled peptide along with appropriate dilutions of candidate compounds (1.5 μL) in a total volume of 150 μL of buffer (20 mM Tris pH 7.4, 10% glycerol). The reaction was carried out at 37° C. for one hour, after which the reaction was stopped by adding 20 μL of 1 M HCl/0.4 M sodium acetate. […] Radioactivity was measured using a Tri-Carb 21 00TR Liquid Scintillation Analyzer (Packard).
Percent activity (% activity) for each test compound was calculated as: % activity={(S^C−B)/(S°−B)}×100 wherein S^C denotes signal measured in the presence of enzyme and the compound being tested, S° denotes signal measured in the presence of enzyme but in the absence of the compound being tested, and B denotes the background signal measured in the absence of both enzyme and compound being tested.

Setting [3] is: Table 1, read-out: HDAC Inhibition (IC50 unless otherwise specified) HeLa.
[4] abbreviates: comparative tables, HDAC inhibition, read-out: HeLa IC50.
Setting [5] is: Homo sapiens, Keratinocyte, Table 2, NHEK-AD.

SMILES strings stand for the structures. Like-named read-outs stand apart in the source and are kept apart here.

Turning to `Nc1ccccc1NC(=O)c1ccc(CNC(=O)OCc2cccnc2)cc1` [MS-275, reference compound], the IC50 was 9.16 µM in series [1]; 0.365 µM in the series on JURKAT human T-cell line; 3.1 µM in series [2] (Table 2, NHEK-AD).
On to `O=C(/C=C/C#Cc1cccc(NS(=O)(=O)c2ccccc2)c1)NO` [Oxamflatin, (2E)-5-[3-[(phenylsulfonyl)amino]phenyl]-pent-2-en-4-ynohydroxamic acid, reference compound], for which the IC50 came out at 4.56 µM in series [1] (Homo sapiens, Keratinocyte); 1.1 µM in the series with HeLa cells (48 h); 0.26 µM with JURKAT human T-cell line (Homo sapiens); 0.038 µM with HDAC (HeLa cell extract) (setting [3]); 0.038 µM in the series on HDAC (HeLa cell extract) (setting [4]); 3.53 µM in series [2] (Homo sapiens, Keratinocyte).
For `O=C(/C=C/c1cccc(S(=O)(=O)Nc2ccccc2)c1)NO` [PX105684, N-Hydroxy-3-(3-phenylsulfamoylphenyl)acrylamide], the IC50 was found to be 2.4 µM in series [1] (Homo sapiens, Keratinocyte); 2.2 µM in the series with HeLa cells (Table 2, 48 h); 0.2 µM in the series on JURKAT human T-cell line (Homo sapiens); 1.5 µM in series [2] (setting [5]).
Take `O=C(/C=C/c1cccc(S(=O)(=O)Nc2cccc3ccccc23)c1)NO` [PX117228, N-Hydroxy-3-[3-(naphthalen-1-ylsulfamoyl)-phenyl]-acrylamide]: the melting point turned out to be 180 °C. Moreover, the IC50 in series [1] (Homo sapiens, Keratinocyte) was 1.4 µM. Also, the IC50 in the series on HeLa cells (48 h) was determined as 0.8 µM. Besides, in the series with JURKAT human T-cell line (Homo sapiens), the IC50 is 0.15 µM. Moreover, the IC50 in the series with HDAC (HeLa cell extract) (setting [3]) came to 0.007 µM. The IC50 in the series on HDAC (HeLa cell extract) (setting [4]) is 0.007 µM. Further, the IC50 in series [2] (Homo sapiens, Keratinocyte) worked out at 1.2 µM.
Regarding `O=C(CCCCCCCS(=O)(=O)Nc1ccccc1)NO` [PX117245], the melting point lay in the range of 87 to 88 °C. Moreover, in the series on HeLa cells (Table 2, 48 h), the IC50 is 0.31 µM. Further, in the series on JURKAT human T-cell line (Homo sapiens), the IC50 is 1.1 µM. Besides, the IC50 with HDAC (HeLa cell extract) (setting [3]) came to 0.016 µM. Besides, in series [2] (setting [5]), the IC50 stood at 0.52 µM.
`O=C(/C=C/c1ccc(S(=O)(=O)Nc2ccc(-c3ccccc3)cc2)cc1)NO` [PX117792, N-Hydroxy-3-[4-(biphenyl-4-ylsulfamoyl)-phenyl]-acrylamide] had a melting point of 211 to 211.5 °C. The IC50 in series [1] (Homo sapiens, Keratinocyte) is 0.4 µM. In addition, in the series on HeLa cells (Table 2, 48 h), the IC50 is 1.4 µM. Further, the IC50 with JURKAT human T-cell line (Homo sapiens) worked out at 0.43 µM. In the series with HDAC (HeLa cell extract) (setting [3]), the IC50 turned out to be 0.048 µM.
The like results for `O=C(/C=C/c1ccc(NS(=O)(=O)c2ccc(-c3ccccc3)cc2)cc1)NO` [PX117793, (E)-N-Hydroxy-3-[4-(4-biphenylsulfonylamino)-phenyl]-2-propenamide] were, in that order, 190 to 191.5 °C, 2.7 µM, 2 µM, 0.5 µM and 0.05 µM.
The like results for `COc1ccc(S(=O)(=O)Nc2ccc(/C=C/C(=O)NO)cc2)cc1OC` [PX117794, (E)-N-Hydroxy-3-[4-(3,4-dimethoxyphenylsulfonylamino)-phenyl]-2-propenamide] were, in that order, 178.5 to 179 °C, 2.3 µM, 3.3 µM, 0.6 µM and 0.024 µM.
The corresponding values for `O=C(/C=C/c1ccc(S(=O)(=O)Nc2ccc(Br)cc2)cc1)NO` [PX117795, N-Hydroxy-3-[4-(4-bromo-phenylsulfamoyl)-phenyl]-acrylamide] are 219 to 220.5 °C, 1.5 µM, 3.4 µM, 0.51 µM and 0.013 µM.
`CCn1c2ccccc2c2cc(NS(=O)(=O)c3cccc(/C=C/C(=O)NO)c3)ccc21` [PX117798] showed a melting point of 130 to 133 °C. In addition, in series [1] (Homo sapiens, Keratinocyte), the IC50 worked out at 0.35 µM. In addition, the IC50 in the series with HeLa cells (Table 2, 48 h) came out at 0.9 µM. Besides, in the series with JURKAT human T-cell line (Homo sapiens), the IC50 is 3.6 µM. The IC50 in the series on HDAC (HeLa cell extract) (setting [3]) was found to be 0.05 µM.
With `CC(/C=C/C(=O)NO)=C\[C@@H](C)C(=O)c1ccc(N(C)C)cc1` [TSA, trichostatin A, reference compound], the IC50 in series [1] (Homo sapiens, Keratinocyte) was 0.38 µM; in the series on HeLa cells (Table 2, 48 h), 0.35 µM; with JURKAT human T-cell line (Homo sapiens) it was 0.042 µM; in series [2] (setting [5]) it was 0.2 µM.
